Source: patent US9464092B2, “Transient protection of normal cells during chemotherapy” (G1 Therapeutics, Inc., priority 2013, dated 2016)

Columns and labels:
Format in all cases: biochemical
CDK4/CyclinD1 = CDK4/CyclinD1 (Homo sapiens (Human), UniProt P11802); experiment: CDK4/CyclinD1 kinase assay (Nanosyn, Caliper microfluidic); settings: Table 2; read-out: CDK4/CycD1 IC50
Protocol: (§1) Selected compounds disclosed herein were tested in CDK4/cyclinD1, CDK6/CycD3 CDK2/CycA and CDK2/cyclinE kinase assays by Nanosyn (Santa Clara, Calif.) to determine their inhibitory effect on these CDKs. The assays were performed using microfluidic kinase detection technology (Caliper Assay Platform). The compounds were tested in 12-point dose-response format in singlicate at Km for ATP. Phosphoacceptor substrate peptide concentration used was 1 μM for all assays and Staurosporine was used as the reference compound for all assays. Specifics of each assay are as described below:
CDK4/CyclinD1: Enzyme concentration: 1 nM; ATP concentration: 200 μM; Incubation time: 10 hr.

CDK2/CyclinE = CDK2/CyclinE (Homo sapiens (Human), UniProt P24941); experiment: CDK2/CyclinE kinase assay (Nanosyn, Caliper microfluidic); settings: Table 2; for IC50: read-out: CDK2/CycE IC50
Protocol: Selected compounds disclosed herein were tested in CDK4/cyclinD1, CDK6/CycD3 CDK2/CycA and CDK2/cyclinE kinase assays by Nanosyn (Santa Clara, Calif.) to determine their inhibitory effect on these CDKs. The assays were performed using microfluidic kinase detection technology (Caliper Assay Platform). The compounds were tested in 12-point dose-response format in singlicate at Km for ATP. Phosphoacceptor substrate peptide concentration used was 1 μM for all assays and Staurosporine was used as the reference compound for all assays.

CDK2/CyclinA = CDK2/CyclinA (Homo sapiens (Human), UniProt P24941); experiment: CDK2/CyclinA kinase assay (Nanosyn, Caliper microfluidic); settings: Table 2; for IC50: read-out: CDK2/CycA IC50
Protocol: as §1
CDK2/CyclinA: Enzyme concentration: 0.2 nM; ATP concentration: 50 μM; Incubation time: 3 hr.

Sequence of CDK4/CyclinD1 (P11802 whole entry, species assumed): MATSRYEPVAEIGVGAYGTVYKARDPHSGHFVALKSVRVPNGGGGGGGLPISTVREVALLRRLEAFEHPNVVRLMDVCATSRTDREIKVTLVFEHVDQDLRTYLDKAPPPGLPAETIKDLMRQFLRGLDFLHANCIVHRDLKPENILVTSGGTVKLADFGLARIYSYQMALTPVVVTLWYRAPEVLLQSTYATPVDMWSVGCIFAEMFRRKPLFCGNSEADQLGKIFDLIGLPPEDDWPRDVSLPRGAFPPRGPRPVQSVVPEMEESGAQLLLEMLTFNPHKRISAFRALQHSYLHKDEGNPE
Sequence of CDK4/CyclinD1 (P24385 whole entry partner, species assumed): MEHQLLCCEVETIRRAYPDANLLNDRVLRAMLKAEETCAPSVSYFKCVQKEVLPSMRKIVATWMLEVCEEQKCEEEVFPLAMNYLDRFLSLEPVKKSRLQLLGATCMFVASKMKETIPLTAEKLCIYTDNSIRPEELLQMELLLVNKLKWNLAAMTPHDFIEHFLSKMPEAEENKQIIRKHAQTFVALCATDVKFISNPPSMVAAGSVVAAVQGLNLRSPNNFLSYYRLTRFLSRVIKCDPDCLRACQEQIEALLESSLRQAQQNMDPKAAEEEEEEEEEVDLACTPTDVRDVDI

Compound	IC50 (CDK4/CyclinD1) [nM]	Fold Selectivity (CDK2/CycE/CDK4) (CDK2/CyclinE)	IC50 (CDK2/CyclinE) [nM]	Fold Selectivity (CDK2/CycA/CDK4) (CDK2/CyclinA)	IC50 (CDK2/CyclinA) [nM]
CC(C)N1CCN(c2ccc(Nc3ncc4cc5n(c4n3)C3(CCCCC3)CNC5=O)nc2)C[C@@H]1C [AA]	0.5	13319	6100	10109	4630
C[C@H](O)CN1CCN(c2ccc(Nc3ncc4cc5n(c4n3)C3(CCCCC3)CNC5=O)nc2)CC1 [A]	4.2	1516	6350	754	3160
CC1(C)CN(c2ccc(Nc3ncc4cc5n(c4n3)C3(CCCCC3)CNC5=O)nc2)CCN1C1CC1 [BB]	0.8	2017	1680	603	502
C[C@H]1CN(c2ccc(Nc3ncc4cc5n(c4n3)C3(CCCCC3)CNC5=O)nc2)CCN1CC1CC1 [B]	0.4	6862	3040	4266	1890
CC(C)(C)CCN1CCN(c2ccc(Nc3ncc4cc5n(c4n3)C3(CCCC3)CNC5=O)nc2)CC1(C)C [CCC]	2	1074	2170	226	457
CCN(CC)C1CCN(c2ccc(Nc3ncc4cc5n(c4n3)C3(CCCCC3)CNC5=O)nc2)CC1 [CC]	1.6	791	1250	478	755
C[C@H](O)CN1CCN(c2ccc(Nc3ncc4cc5n(c4n3)C3(CCCCC3)CNC5=O)nc2)C[C@@H]1C [C]	1.4	1333	1920	428	616
C[C@@H]1CN(c2ccc(Nc3ncc4cc5n(c4n3)C3(CCCC3)CNC5=O)nc2)C[C@H](C)N1 [DDD]	9.5	986	9350		
C[C@@H]1CN(c2ccc(Nc3ncc4cc5n(c4n3)C3(CCCCC3)CNC5=O)nc2)C[C@H](C)N1C [DD]	1.9	5200	9620	4519	8360
CN1CCN(c2ccc(Nc3ncc4cc5n(c4n3)C3(CCCCC3)CNC5=O)nc2)CC1(C)C [D]	0.9	3779	3480	1629	1500
CC(C)(O)CN1CCN(c2ccc(Nc3ncc4cc5n(c4n3)C3(CCCC3)CNC5=O)nc2)CC1 [EEE]	2.3	1266	2950	405	943
CC(C)N1CCN(Cc2ccc(Nc3ncc4cc5n(c4n3)C3(CCCCC3)CNC5=O)nc2)CC1 [EE]	3.8	432	1660	289	1110
CC(C)C1CN(c2ccc(Nc3ncc4cc5n(c4n3)C3(CCCCC3)CNC5=O)nc2)CCN1 (stereo not drawn) [E]	1	688	695	202	204
CCN1[C@H](C)CN(c2ccc(Nc3ncc4cc5n(c4n3)C3(CCCCC3)CNC5=O)nc2)C[C@@H]1C [FF]	1.2	3949	4620	1197	1400
O=C1NCC2(CCCCC2)n2c1cc1cnc(Nc3ccc(N4CCN(C5CCC5)CC4)cn3)nc12 [F]	1.5	419	628	127	190
CC(C)N1CCN(c2ccc(Nc3ncc4cc5n(c4n3)C3(CCCC3)CNC5=O)nc2)CC1C (stereo not drawn) [GGG]	13.7	555	7610		
CC1CN(c2ccc(Nc3ncc4cc5n(c4n3)C3(CCCCC3)CNC5=O)nc2)CCN1CCC(C)(C)C (stereo not drawn) [G]	1.5	1767	2580	442	646

Compound	IC50 (CDK4/CyclinD1) [nM]	Fold Selectivity (CDK2/CycE/CDK4) (CDK2/CyclinE)	IC50 (CDK2/CyclinE) [nM]	Fold Selectivity (CDK2/CycA/CDK4) (CDK2/CyclinA)	IC50 (CDK2/CyclinA) [nM]
O=C1NCC2(CCCC2)n2c1cc1cnc(Nc3ccc(N4CCC(N5CCCCC5)CC4)cn3)nc12 [HHH]	6.8	419	2840		
O=C1NCC2(CCCCC2)n2c1cc1cnc(Nc3ccc(N4CCN(CC5CC5)CC4)cn3)nc12 [HH]	1.7	766	1280	159	265
CC1(C)CN(c2ccc(Nc3ncc4cc5n(c4n3)C3(CCCCC3)CNC5=O)nc2)CCN1CC1CC1 [H]	1.5	1013	1520	251	377
CC(C)N1CCN(c2ccc(Nc3ncc4cc5n(c4n3)C3(CCCC3)CNC5=O)nc2)CC1 [III]	6	626	3770		
CCN(CC)C1CCN(C(=O)c2ccc(Nc3ncc4cc5n(c4n3)C3(CCCCC3)CNC5=O)nc2)C1 (stereo not drawn) [JJ]	1.4	204	288		
O=C1NCC2(CCCCC2)n2c1cc1cnc(Nc3ccc(N4CCC(N5CCCCC5)CC4)cn3)nc12 [N]	1	1500	1500		
CN(C)C1CCN(c2ccc(Nc3ncc4cc5n(c4n3)C3(CCCCC3)CNC5=O)nc2)CC1 [O]				1245	3150
O=C1NCC2(CCCC2)n2c1cc1cnc(Nc3ccc(N4CCNCC4)cn3)nc12 [QQQ]	10.5	1057	11100		
CC(C)N1CCN(c2ccc(Nc3ncc4cc5n(c4n3)C3(CCCC3)CNC5=O)nn2)CC1 [RRR]	2.6	1758	4500		
CN(C)C1CCN(c2ccc(Nc3ncc4cc5n(c4n3)C3(CCCC3)CNC5=O)nn2)CC1 [TTT]	3.4	899	3030		
CC(C)[C@H]1CNC(=O)c2cc3cnc(Nc4ccc(N5CCNCC5)cn4)nc3n21 [UUU]	18	914	16500		
CCN(CC)C1CCN(c2ccc(Nc3ncc4cc5n(c4n3)C3(CCCC3)CNC5=O)nc2)C1 (stereo not drawn) [UU]	7.3	542	3960		
CC(C)C[C@@H]1CNC(=O)c2cc3cnc(Nc4ccc(N5CCNCC5)cn4)nc3n21 [WWW]	18.5	135	2500		
CC(C)C[C@@H]1CNC(=O)c2cc3cnc(Nc4ccc(N5CCN(C)CC5)cn4)nc3n21 [XXX]	11.4	581	6620		
CN(C)C1CCN(c2ccc(Nc3ncc4cc5n(c4n3)C3(CCCC3)CNC5=O)nc2)CC1 [YY]	4.6	1490	6900		
CN1CCN(c2ccc(Nc3ncc4cc5n(c4n3)C3(CCCC3)CNC5=O)nc2)CC1 [ZZ]	10.5	949	9960		
